Patent publication US9969694B2, “N-(arylalkyl)-N′-pyrazolyl-urea, thiourea, guanidine and cyanoguanidine compounds as TrkA kinase inhibitors” (Array BioPharma Inc., priority 2012, dated 2018)

These compounds were tested against T1, His-tagged recombinant human TrkA (Homo sapiens, UniProt P04629) (assay: TrkA Kinase Binding Assay (LanthaScreen Eu)). Conditions: averaged IC50; TR-FRET binding, 60 min, 22° C.; read-out: TrkA Enzyme IC50.
T1 construct: 6HIS tagged cytoplasmic domain from Invitrogen, Catalog No. PV3144; purchased Invitrogen PV3144
Outline: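 TR-FRET tracer displacement: 5 nM His-tagged TrkA cytoplasmic domain with 4 nM Tracer 236, biotinylated anti-His and Eu-streptavidin in pH 7.5 MOPS buffer, 2% DMSO, 60 min at 22 °C. 665/615 nm emission ratio gave percent of control; IC50 from four-parameter fit.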

T1 sequence (P04629 440-796 limits assumed): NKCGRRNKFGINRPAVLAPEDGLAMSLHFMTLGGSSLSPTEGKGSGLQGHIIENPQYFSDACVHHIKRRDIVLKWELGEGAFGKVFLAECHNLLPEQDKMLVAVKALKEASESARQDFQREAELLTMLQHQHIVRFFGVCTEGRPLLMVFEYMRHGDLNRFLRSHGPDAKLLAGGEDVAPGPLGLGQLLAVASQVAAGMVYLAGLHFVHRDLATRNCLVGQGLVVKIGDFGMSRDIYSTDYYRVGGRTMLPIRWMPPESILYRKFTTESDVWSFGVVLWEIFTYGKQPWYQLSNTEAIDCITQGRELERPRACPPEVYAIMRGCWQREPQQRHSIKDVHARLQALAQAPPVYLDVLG

`COCc1ccc(OC(F)(F)F)c(CNC(=O)Nc2c(C)c(OCCF)nn2-c2ccccc2)c1` [Example 60, 1-(3-(2-fluoroethoxy)-4-methyl-1-phenyl-1H-pyrazol-5-yl)-3-(5-(methoxymethyl)-2-(trifluoromethoxy)benzyl)urea] and `COCc1ccc(C2CCC2)c(CNC(=O)Nc2c(C)c(OCc3nnc(C)o3)nn2-c2ccccc2)c1` [Example 126, 1-(2-cyclobutyl-5-(methoxymethyl)benzyl)-3-(4-methyl-3-((5-methyl-1,3,4-oxadiazol-2-yl)methoxy)-1-phenyl-1H-pyrazol-5-yl)urea] cannot be ordered by IC50: less than 0.1 µM for the first, less than 0.1 µM for the second.

First: Cc1c(-c2cnn(C)c2)nn(-c2ccccc2)c1NC(=O)NCc1ccccc1-c1ccccc1 [Example 50, 1-([1,1′-biphenyl]-2-ylmethyl)-3-(1′,4-dimethyl-1-phenyl-1H,1′H-[3,4′-bipyrazol]-5-yl)urea]
Second: CSCc1ccc(C2CCC2)c(CNC(=O)Nc2c(C)c(-c3cnn(C)c3)nn2-c2ccccc2)c1 [Example 123, 1-(2-cyclobutyl-5-((methylthio)methyl)benzyl)-3-(1′,4-dimethyl-1-phenyl-1H,1′H-[3,4′-bipyrazol]-5-yl)urea]
The IC50 of the first is higher: 0.1 to 1 µM for the first, less than 0.1 µM for the second.

`COCc1ccc(OC(F)(F)F)c(CNC(=O)Nc2c(C)c(OCC3CCN(C)CC3)nn2-c2ccccc2)c1` [Example 93, 1-(5-(methoxymethyl)-2-(trifluoromethoxy)benzyl)-3-(4-methyl-3-((1-methylpiperidin-4-yl)methoxy)-1-phenyl-1H-pyrazol-5-yl)urea] and `COCc1ccc(C2CCCC2)c(CNC(=O)Nc2c(C)c(-c3cnc(C)nc3)nn2-c2ccccc2)c1` [Example 12, 1-(2-cyclopentyl-5-(methoxymethyl)benzyl)-3-(4-methyl-3-(2-methylpyrimidin-5-yl)-1-phenyl-1H-pyrazol-5-yl)urea] cannot be ordered by IC50: less than 0.1 µM for the first, less than 0.1 µM for the second.

`COCc1ccc(OC(F)(F)F)c(CNC(=O)Nc2c(C)c(-c3ccc(OC)nc3)nn2-c2ccccc2)c1` [Example 53, 1-(5-(methoxymethyl)-2-(trifluoromethoxy)benzyl)-3-(3-(6-methoxypyridin-3-yl)-4-methyl-1-phenyl-1H-pyrazol-5-yl)urea] and `COCc1ccc(OC(F)(F)F)c(CNC(=O)Nc2c(C)c(OC3CC4(CCN4)C3)nn2-c2ccccc2)c1` (stereo not shown) [Example 90, 1-(3-(1-azaspiro[3.3]heptan-6-yloxy)-4-methyl-1-phenyl-1H-pyrazol-5-yl)-3-(5-(methoxymethyl)-2-(trifluoromethoxy)benzyl)urea] cannot be ordered by IC50: less than 0.1 µM for the first, less than 0.1 µM for the second.

`COCc1ccc(OC(F)(F)F)c(CNC(=O)Nc2c(C)c(OCC3CCCN(C)C3)nn2-c2ccccc2)c1` (stereo not shown) [Example 111, 1-(5-(methoxymethyl)-2-(trifluoromethoxy)benzyl)-3-(4-methyl-3-((1-methylpiperidin-3-yl)methoxy)-1-phenyl-1H-pyrazol-5-yl)urea] and `COCc1ccc(OC(F)(F)F)c(CNC(=O)Nc2c(C)c(O[C@H]3CN(C)C[C@H]3F)nn2-c2ccccc2)c1` [Example 81, 1-(3-(((3S,4R)-4-fluoro-1-methylpyrrolidin-3-yl)oxy)-4-methyl-1-phenyl-1H-pyrazol-5-yl)-3-(5-(methoxymethyl)-2-(trifluoromethoxy)benzyl)urea] cannot be ordered by IC50: less than 0.1 µM for the first, less than 0.1 µM for the second.

First: COCc1ccc(C2CCC2)c(CNC(=O)Nc2c(C)c(-c3ccc(C)nc3)nn2-c2ccccc2)c1 [Example 8, 1-(2-cyclobutyl-5-(methoxymethyl)benzyl)-3-(4-methyl-3-(6-methylpyridin-3-yl)-1-phenyl-1H-pyrazol-5-yl)urea]
Second: COCc1ccc(C2CC2)c(C(C)NC(=O)Nc2c(C)c(-c3cnn(C)c3)nn2-c2ccccc2)c1 (stereo not shown) [Example 30, 1-(1-(2-cyclopropyl-5-(methoxymethyl)phenyl)ethyl)-3-(1′,4-dimethyl-1-phenyl-1H,1′H-[3,4′-bipyrazol]-5-yl)urea]
The IC50 of the first is lower: less than 0.1 µM for the first, 0.1 to 1 µM for the second.

`COCc1ccc(OC(F)(F)F)c(CNC(=O)Nc2c(C)c(OC3CC4(CCN4C)C3)nn2-c2ccccc2)c1` (stereo not shown) [Example 94, 1-(5-(methoxymethyl)-2-(trifluoromethoxy)benzyl)-3-(4-methyl-3-((1-methyl-1-azaspiro[3.3]heptan-6-yl)oxy)-1-phenyl-1H-pyrazol-5-yl)urea 2,2,2-trifluoroacetate] and `COCc1ccc(OC(F)(F)F)c(CNC(=O)Nc2c(C)c(OCCO)nn2-c2ccccc2)c1` [Example 63, 1-(3-(2-hydroxyethoxy)-4-methyl-1-phenyl-1H-pyrazol-5-yl)-3-(5-(methoxymethyl)-2-(trifluoromethoxy)benzyl)urea] cannot be ordered by IC50: less than 0.1 µM for the first, less than 0.1 µM for the second.

`COCc1ccc(C2CCC2)c(CNC(=O)Nc2c3c(nn2-c2ccccc2)CSC3)c1` [Example 120, 1-(2-cyclobutyl-5-(methoxymethyl)benzyl)-3-(2-phenyl-4,6-dihydro-2H-thieno[3,4-c]pyrazol-3-yl)urea] and `COCc1ccc(OC(F)F)c(CNC(=O)Nc2c(C)c(-c3ccc(C)nc3)nn2-c2ccccc2)c1` [Example 21, 1-(2-(difluoromethoxy)-5-(methoxymethyl)benzyl)-3-(4-methyl-3-(6-methylpyridin-3-yl)-1-phenyl-1H-pyrazol-5-yl)urea] cannot be ordered by IC50: less than 0.1 µM for the first, less than 0.1 µM for the second.

`COCc1ccc(OC(F)(F)F)c(CNC(=O)Nc2c(C)c(OC[C@H]3CCNC[C@H]3F)nn2-c2ccccc2)c1` [Example 88, 1-(3-(((3S,4R)-3-fluoropiperidin-4-yl)methoxy)-4-methyl-1-phenyl-1H-1-pyrazol-5-yl)-3-(5-(methoxymethyl)-2-(trifluoromethoxy)benzyl)urea 2,2,2-trifluoroacetate] and `Cc1c(-c2cnn(C)c2)nn(-c2ccccc2)c1NC(=O)NCC1CCCc2ccccc21` (stereo not shown) [Example 44, 1-(1′,4-dimethyl-1-phenyl-1H,1′H-3,4′-bipyrazol-5-yl)-3-((1,2,3,4-tetrahydronaphthalen-1-yl)methyl)urea] cannot be ordered by IC50: less than 0.1 µM for the first, less than 0.1 µM for the second.

Compared with “5-(3-(2-(difluoromethoxy)-5-(methoxymethyl)benzyl)ureido)-N,4-dimethyl-1-phenyl-1H-pyrazole-3-carboxamide [Example 51]”, `Cc1ccccc1CC(NC(=O)Nc1c2c(nn1-c1ccccc1)CCC2)c1ccccc1` (stereo not shown) [Example 39, 1-(2-phenyl-2,4,5,6-tetrahydrocyclopenta[c]pyrazol-3-yl)-3-(1-phenyl-2-o-tolylethyl)urea] is higher in IC50: less than 0.1 µM for the first, 0.1 to 1 µM for the second. The first is the more potent here.

`COCc1ccc(OC(F)F)c(CNC(=O)Nc2c(C)c(-c3cnn(C)c3)nn2-c2ccccc2)c1` [Example 20, 1-(2-(difluoromethoxy)-5-(methoxymethyl)benzyl)-3-(1′,4-dimethyl-1-phenyl-1H,1′H-[3,4′-bipyrazol]-5-yl)urea] and `COCc1ccc(OC(F)(F)F)c(CNC(=O)Nc2c(C)c(OCC3(F)CNC3)nn2-c2ccccc2)c1` [Example 86, 1-(3-((3-fluoroazetidin-3-yl)methoxy)-4-methyl-1-phenyl-1H-pyrazol-5-yl)-3-(5-(methoxymethyl)-2-(trifluoromethoxy)benzyl)urea] cannot be ordered by IC50: less than 0.1 µM for the first, less than 0.1 µM for the second.

`COCc1ccc(OC(F)(F)F)c(CNC(=O)Nc2c(C)c(-c3ccc(C)nc3)nn2-c2ccccc2)c1` [Example 23, 1-(5-(methoxymethyl)-2-(trifluoromethoxy)benzyl)-3-(4-methyl-3-(6-methylpyridin-3-yl)-1-phenyl-1H-pyrazol-5-yl)urea] and `COCc1ccc(OC(F)(F)F)c(CNC(=O)Nc2c(C)c(OC3CNC3)nn2-c2ccccc2)c1` [Example 89, 1-(3-(azetidin-3-yloxy)-4-methyl-1-phenyl-1H-pyrazol-5-yl)-3-(5-(methoxymethyl)-2-(trifluoromethoxy)benzyl)urea] cannot be ordered by IC50: less than 0.1 µM for the first, less than 0.1 µM for the second.

`COCc1ccc(OC(F)(F)F)c(CNC(=O)Nc2c(C)c(OC[C@@H]3CNCCO3)nn2-c2ccccc2)c1` [Example 112, (S)-1-(5-(methoxymethyl)-2-(trifluoromethoxy)benzyl)-3-(4-methyl-3-(morpholin-2-ylmethoxy)-1-phenyl-1H-pyrazol-5-yl)urea] and `COCc1ccc(OC(F)(F)F)c(CNC(=O)Nc2c3c(nn2-c2ccccc2)CS(=O)(=O)C3)c1` [Example 58, 1-(5,5-dioxido-2-phenyl-4,6-dihydro-2H-thieno[3,4-c]pyrazol-3-yl)-3-(5-(methoxymethyl)-2-(trifluoromethoxy)benzyl)urea] cannot be ordered by IC50: less than 0.1 µM for the first, less than 0.1 µM for the second.

`COCc1ccc(OC(F)(F)F)c(CNC(=O)Nc2c(C)c(O[C@@H]3CCN(C)C[C@H]3F)nn2-c2ccccc2)c1` [Example 98, 1-(3-(((3R,4R)-3-fluoro-1-methylpiperidin-4-yl)oxy)-4-methyl-1-phenyl-1H-pyrazol-5-yl)-3-(5-(methoxymethyl)-2-(trifluoromethoxy)benzyl)urea] and `COCc1ccc(OC(F)F)c(CNC(=O)Nc2c(C)c(OCC3CCN(C)C3)nn2-c2ccccc2)c1` (stereo not shown) [Example 107, 1-(2-(difluoromethoxy)-5-(methoxymethyl)benzyl)-3-(4-methyl-3-((1-methylpyrrolidin-3-yl)methoxy)-1-phenyl-1H-pyrazol-5-yl)urea] cannot be ordered by IC50: less than 0.1 µM for the first, less than 0.1 µM for the second.

`COCc1ccc(OC(F)(F)F)c(CNC(=O)Nc2c(C)c(OC3CCNCC3)nn2-c2ccccc2)c1` [Example 78, 1-(5-(methoxymethyl)-2-(trifluoromethoxy)benzyl)-3-(4-methyl-1-phenyl-3-(piperidin-4-yloxy)-1H-pyrazol-5-yl)urea] and `CCOc1ccc(C2CC2)c(CNC(=O)Nc2c(C)c(-c3cnn(C)c3)nn2-c2ccccc2)c1` [Example 15, 1-(2-cyclopropyl-5-ethoxybenzyl)-3-(1′,4-dimethyl-1-phenyl-1H,1′H-[3,4′-bipyrazol]-5-yl)urea] cannot be ordered by IC50: less than 0.1 µM for the first, less than 0.1 µM for the second.

For `Cc1c(-c2cnn(C)c2)nn(-c2ccccc2)c1NC(=O)NCc1ccncc1C1CCC1` [Example 37, 1-((3-cyclobutylpyridin-4-yl)methyl)-3-(1′,4-dimethyl-1-phenyl-1H,1′H-[3,4′-bipyrazol]-5-yl)ureaea], the IC50 was 0.1 to 1 µM.
